Experimental data published in EP4729518A1, “CRYSTAL FORM OF METHIONINE ADENOSYLTRANSFERASE 2A HETEROCYCLIC INHIBITOR, PREPARATION METHOD THEREFOR, AND USE THEREOF” (Nanjing Chia Tai Tianqing Pharmaceutical Co., Ltd., priority 2023, dated 2024).

Experiments:
[1] = Heating experiment via DSC followed by XRD; type: physicochemical
Excerpt: The heated samples were then collected and subjected to XRD analysis. Table 27: Summary of heating test results for various crystal forms

[2] = Solid state stability of crystal forms (XRD and HPLC); type: physicochemical
Procedure: Samples of the crystal forms B, H, and L were placed under the conditions of 25 °C/60% RH and 40 °C/75% RH for 17 days, and then the physicochemical stability of the samples was tested using XRD and HPLC. Table 24: Summary of solid state stability evaluation of crystal forms

Compound: Cn1cc2cc(-c3nn4ccc(C5CC5)nc4c(-c4ccc(OC(F)F)cc4)c3=O)ccc2n1 [Crystal form A, 2-cyclopropyl-9-[4-(difluoromethoxy)phenyl]-7-(2-methyl-2H-indazol-5-yl)-8H-pyrimido[1,2-b]pyridazin-8-one]
- stability on heating ([1]; after heating (>100 °C)): high-temperature stable crystal form

Compound: Cn1cc2cc(-c3nn4ccc(C5CC5)nc4c(-c4ccc(OC(F)F)cc4)c3=O)ccc2n1 [Crystal form B, 2-cyclopropyl-9-[4-(difluoromethoxy)phenyl]-7-(2-methyl-2H-indazol-5-yl)-8H-pyrimido[1,2-b]pyridazin-8-one]
- After heating (crystal form) ([1]; Heating temperature 250 °C): Crystal form A
- Crystal form change ([2]; 0 day): No
- Purity ([2]; 0 day): 98.69%
- change in crystal form or purity ([2]; 25 °C/60% RH for 17 days): no change in either crystal form or purity
- Crystal form change ([2]; 25 °C/60% RH/17 days): No
- Purity ([2]; 25 °C/60% RH/17 days): 98.69%
- change in crystal form or purity ([2]; 40 °C/75% RH for 17 days): no change in either crystal form or purity
- Crystal form change ([2]; 40 °C/75% RH/17 days): No
- Purity ([2]; 40 °C/75% RH/17 days): 98.68%

Compound: Cn1cc2cc(-c3nn4ccc(C5CC5)nc4c(-c4ccc(OC(F)F)cc4)c3=O)ccc2n1 [Crystal form D, 2-cyclopropyl-9-[4-(difluoromethoxy)phenyl]-7-(2-methyl-2H-indazol-5-yl)-8H-pyrimido[1,2-b]pyridazin-8-one]
- After heating (crystal form) ([1]; Heating temperature 150 °C): Crystal forms A + H + L

Compound: Cn1cc2cc(-c3nn4ccc(C5CC5)nc4c(-c4ccc(OC(F)F)cc4)c3=O)ccc2n1 [Crystal form I, 2-cyclopropyl-9-[4-(difluoromethoxy)phenyl]-7-(2-methyl-2H-indazol-5-yl)-8H-pyrimido[1,2-b]pyridazin-8-one]
- After heating (crystal form) ([1]; Heating temperature 150 °C): Crystal form A

Compound: Cn1cc2cc(-c3nn4ccc(C5CC5)nc4c(-c4ccc(OC(F)F)cc4)c3=O)ccc2n1 [Crystal form M, 2-cyclopropyl-9-[4-(difluoromethoxy)phenyl]-7-(2-methyl-2H-indazol-5-yl)-8H-pyrimido[1,2-b]pyridazin-8-one]
- After heating (crystal form) ([1]; Heating temperature 150 °C): Crystal form A

Compound: Cn1cc2cc(-c3nn4ccc(C5CC5)nc4c(-c4ccc(OC(F)F)cc4)c3=O)ccc2n1 [Crystal form N, 2-cyclopropyl-9-[4-(difluoromethoxy)phenyl]-7-(2-methyl-2H-indazol-5-yl)-8H-pyrimido[1,2-b]pyridazin-8-one]
- After heating (crystal form) ([1]; Heating temperature 100 °C): Crystal form A

Compound: Cn1cc2cc(-c3nn4ccc(C5CC5)nc4c(-c4ccc(OC(F)F)cc4)c3=O)ccc2n1 [Crystal form O, 2-cyclopropyl-9-[4-(difluoromethoxy)phenyl]-7-(2-methyl-2H-indazol-5-yl)-8H-pyrimido[1,2-b]pyridazin-8-one]
- After heating (crystal form) ([1]; Heating temperature 150 °C): Crystal form A

Compound: Cn1cc2cc(-c3nn4ccc(C5CC5)nc4c(-c4ccc(OC(F)F)cc4)c3=O)ccc2n1 [Crystal form P, 2-cyclopropyl-9-[4-(difluoromethoxy)phenyl]-7-(2-methyl-2H-indazol-5-yl)-8H-pyrimido[1,2-b]pyridazin-8-one]
- After heating (crystal form) ([1]; Heating temperature 150 °C): Crystal form A

Compound: Cn1cc2cc(-c3nn4ccc(C5CC5)nc4c(-c4ccc(OC(F)F)cc4)c3=O)ccc2n1 [Crystal form Q, 2-cyclopropyl-9-[4-(difluoromethoxy)phenyl]-7-(2-methyl-2H-indazol-5-yl)-8H-pyrimido[1,2-b]pyridazin-8-one]
- After heating (crystal form) ([1]; Heating temperature 130 °C): Crystal form A
